Measured values taken from patent EP3360891B1, “CELL PENETRATING PEPTIDES OF HUMAN ORIGIN” (Karlsruher Institut für Technologie, priority 2017, dated 2018).
Ends that are not written are not given here. Peptide text beside a SMILES is read from it. * marks the point of attachment. 5FAM = O=C1OC2(c3ccc(O)cc3Oc3cc(O)ccc32)c2ccc(C(=O)*)cc21

Tests used:
in vitro = conditions: human
Protocol: Said cells (7000 cells per well) were seeded in 96-well plate and were allowed to grow overnight in standard growth medium containing FBS. On the next day, the medium was discarded and the cells were washed thrice with phosphate buffered saline and incubated with the peptides at 10µM, 25µM, 50µM and 100µM in culture medium without FBS for 24 h at 37°C, 5% CO2. On the following day the cells were washed again with phosphate buffered saline. MTT reagent was added to cells at a final concentration of 1mg/ml in phosphate buffered saline and incubated for 2-4 h at 37°C, 5% CO2. Addition of MTT to the said cells yielded purple formazan crystals that were dissolved by addition of DMSO and the absorbance was measured at 570 nm.

[1] = test system: HaCaT keratinocyte cell line; experiment: Cellular uptake into HaCaT keratinocytes, flow cytometry; assay type: cell-based, human; conditions: for cellular translocation: 25µM carboxyfluorescein labeled peptide, 1 h, 37°C, medium without FBS, mean of six measurements; for cell uptake in comparison to SSL-25: 1 h incubation at a concentration of 25µM
Protocol: Cells (20,000 cells per well) were seeded in 24-well plates and allowed to grow in standard growth medium containing Fetal Bovine Serum (FBS) overnight to attain a confluency of 70%. On the following day, the medium was discarded and cells were washed with phosphate buffered saline. Subsequently the peptide was added at a final concentration of 25µM in culture medium without FBS. The cells were incubated with the peptides labeled with carboxyfluorescein at the N-terminus at 37°C, 5% CO2 for 1 h in the dark. Following incubation of the cells with the peptides, the cells were washed three times with phosphate buffered saline. Subsequently, the cells were trypsinized using 0.25% Trypsin-EDTA for 10 min at 37°C, 5% CO2 to allow the protease dependent degradation of adsorbed surface bound peptides and to allow the detachment of cells from the 24-well plate for further analysis.
The cellular uptake of peptides was assessed by flow cytometry. 5000 events per sample were recorded and analyzed in the flow cytometer. A mean of six measurements was plotted with standard deviations being represented by error bars. […] These peptides translocate in HaCaT cells more efficiently as compared to SSL-25 (31%), SSL-9 E5A D9K (28%) and SSL-9 E5K D9K (22%).

[2] = Translocation into lipid vesicles (encapsulated chymotrypsin, Gly-Gln-Phe-Coumarin tag, method of Marks et al.); conditions: after 10 min, without Zn2+ ions, Figure 4B
Excerpt: Wimley, Spontaneous Membrane-Translocating Peptides by Orthogonal High-Throughput Screening, J Am Chem Soc, 133 (2011) 8995-9004].
In this method, the sequence Gly-Gln-Phe-Coumarin is C-terminally coupled to the peptides. Chymotrypsin is encapsulated in the vesicles, and this enzyme cuts the peptide between phenylalanine and coumarin. If accordingly labeled peptides penetrate into the vesicles, Chymotrypsin acts and cleaves the Phe-Coumarin bond which sets the coumarin free and causes a bathochromic shift of the fluorescence maximum of about 50 nm. which can be determined fluorimetrically.
Large unilamellar vesicles consisting of POPC / POPG 25:75 (mol:mol) were used in a concentration of 100 µM in buffer without or with 100 µM ZnSO4. […]

human erythrocytes = human erythrocytes 0.25 % hematocrit, 37 °C, 30 minutes, 2-fold dilutions from 1024 µM stock, relative to Triton X-100 lysis
Protocol: A concentrated solution of human erythrocytes was adjusted to a hematocrit of 0.5% by repeated washing with buffer solution (172 mM Tris-HCI, pH 7.6) and this diluted solution was equilibrated to 37 °C in a water bath.
The peptides were prepared as a 1024 µM stock solutions in buffer, added to the erythrocytes in sequential 2-fold dilutions and incubated at 37 °C for 30 minutes with occasional shaking.
The cells were centrifuged and the released hemoglobin in the supernatant was quantified using spectrophotometry. The obtained values were set in reference to the value obtained by complete lysis of all cells upon addition of Triton™ X-100.

Row | Molecule | viability at 24 h, 100 µM (in vitro; HaCaT keratinocytes) [%] | cellular translocation [1] [%] | cell uptake in comparison to SSL-25 [1] | viability at 24 h, 100 µM (in vitro) [%] | extent of translocation [2] | hemolysis (human erythrocytes)
1 | CC(C)C[C@H](NC(=O)CNC(=O)[C@H](CCCCN)NC(=O)[C@H](CCC(=O)O)NC(=O)[C@H](CC(C)C)NC(=O)[C@H](CC(C)C)NC(=O)[C@H](CO)NC(=O)[C@H](CO)NC(=O)c1ccc2c(c1)C(=O)OC21c2ccc(O)cc2Oc2cc(O)ccc21)C(=O)N[C@@H](C)C(=O)NCC(=O)N[C@@H](C)C(=O)N[C@@H](CCCCN)C(=O)N[C@@H](CCCCN)C(=O)O [SSL-13 D9A, SSLLEKGLAG AKK] (5FAM-SSLLEKGLAGAKK-OH; N-terminus and C-terminus assumed) | 70 | 81.5 | higher cell uptake in comparison to SSL-25 |  |  | 
2 | CC(C)C[C@H](NC(=O)CNC(=O)[C@H](CCCCN)NC(=O)[C@H](CCCCN)NC(=O)[C@H](CC(C)C)NC(=O)[C@H](CC(C)C)NC(=O)[C@H](CO)NC(=O)[C@H](CO)NC(=O)c1ccc2c(c1)C(=O)OC21c2ccc(O)cc2Oc2cc(O)ccc21)C(=O)N[C@@H](CCCCN)C(=O)O [SSL-9 E5K D9K] (5FAM-SSLLKKGLK-OH; N-terminus and C-terminus assumed) |  | 22 | reduced but comparable uptake | 70 |  | 
3 | CC(C)C[C@H](NC(=O)CNC(=O)[C@H](CCCCN)NC(=O)[C@H](C)NC(=O)[C@H](CC(C)C)NC(=O)[C@H](CC(C)C)NC(=O)[C@H](CO)NC(=O)[C@H](CO)NC(=O)c1ccc2c(c1)C(=O)OC21c2ccc(O)cc2Oc2cc(O)ccc21)C(=O)N[C@@H](CCCCN)C(=O)O [SSL-9 E5A D9K] (5FAM-SSLLAKGLK-OH; N-terminus and C-terminus assumed) | 70 | 28 | reduced but comparable uptake |  |  | 
4 | CC(C)C[C@H](NC(=O)CNC(=O)[C@H](CCCCN)NC(=O)[C@H](CCC(=O)O)NC(=O)[C@H](CC(C)C)NC(=O)[C@H](CC(C)C)NC(=O)[C@H](CO)NC(=O)[C@H](CO)NC(=O)c1ccc2c(c1)C(=O)OC21c2ccc(O)cc2Oc2cc(O)ccc21)C(=O)N[C@@H](CC(=O)O)C(=O)NCC(=O)N[C@@H](C)C(=O)N[C@@H](CCCCN)C(=O)N[C@@H](CCCCN)C(=O)O [SSL-13, SSLLEKGLDG AKK] (5FAM-SSLLEKGLDGAKK-OH) |  | 48 | higher cell uptake in comparison to SSL-25 | 70 | able to penetrate lipid membranes very efficiently | 
5 | CC(C)C[C@H](NC(=O)CNC(=O)[C@H](CCCCN)NC(=O)[C@H](CCC(=O)O)NC(=O)[C@H](CC(C)C)NC(=O)[C@H](CC(C)C)NC(=O)[C@H](CO)NC(=O)[C@H](CO)NC(=O)c1ccc2c(c1)C(=O)OC21c2ccc(O)cc2Oc2cc(O)ccc21)C(=O)N[C@@H](CC(=O)O)C(=O)O [SSL-9, SSLLEKGLD] (5FAM-SSLLEKGLD-OH; N-terminus and C-terminus assumed) |  | 50 | higher cell uptake in comparison to SSL-25 | 70 | reduced translocation | 
6 | CC(C)C[C@H](NC(=O)CNC(=O)[C@H](CCCCN)NC(=O)[C@H](CCCCN)NC(=O)[C@H](CC(C)C)NC(=O)[C@H](CC(C)C)NC(=O)[C@H](CO)NC(=O)[C@H](CO)NC(=O)c1ccc2c(c1)C(=O)OC21c2ccc(O)cc2Oc2cc(O)ccc21)C(=O)N[C@@H](C)C(=O)O [SSL-9 E5K D9A] (5FAM-SSLLKKGLA-OH; N-terminus and C-terminus assumed) |  | 81.7 | higher cell uptake in comparison to SSL-25 | 70 |  | 
7 | CC(C)C[C@H](NC(=O)CNC(=O)[C@H](CCCCN)NC(=O)[C@H](CCC(=O)O)NC(=O)[C@H](CC(C)C)NC(=O)[C@H](CC(C)C)NC(=O)[C@H](CO)NC(=O)[C@H](CO)NC(=O)c1ccc2c(c1)C(=O)OC21c2ccc(O)cc2Oc2cc(O)ccc21)C(=O)N[C@@H](CC(=O)O)C(=O)NCC(=O)N[C@@H](C)C(=O)O [SSL-11, SSLLEKGLDG A] (5FAM-SSLLEKGLDGA-OH; N-terminus and C-terminus assumed) | 70 | 70 | higher cell uptake in comparison to SSL-25 |  | reduced translocation | 
8 | SSLLEKGLDGAKKAVGGLGKLGKDAVEDLESVGKGAVHDVKDVLDSVL [DCD-1L, SSLLEKGLDGAKKAVGGLGKLGKDAVEDLESVGKGAVHDVKDVLDSVL] |  |  |  |  |  | no hemolysis
